Results from PubChem BioAssay (NCI).
Values joined by “and” are separate entries in the source; they are usually repeats but may differ in a detail not shown here. Identical values can stand only once.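 Grown in 96-well plates, cells were treated for 48 hours with each compound at five concentrations. Insufficient inhibition: endpoint recorded as highest concentration tested. GI50 is the concentration that inhibits growth by half. At the TGI there is no net growth.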

What was measured:
Experiment in all cases: NCI anticancer screen, dose series, 48 h
HCC-2998 colon = tested on: HCC-2998 colon
HOP-92 NSCLC = tested on: HOP-92 NSCLC
SK-MEL-5 melanoma = tested on: SK-MEL-5 melanoma
SNB-19 CNS = tested on: SNB-19 CNS
MALME-3M melanoma = tested on: MALME-3M melanoma
SW-620 colon = tested on: SW-620 colon
SF-268 CNS = tested on: SF-268 CNS
OVCAR-5 ovarian = tested on: OVCAR-5 ovarian
MCF7 breast = tested on: MCF7 breast
HS 578T breast = tested on: HS 578T breast

Row | Structure (SMILES) | TGI (HCC-2998 colon) [µM] | TGI (HOP-92 NSCLC) [µM] | TGI (SK-MEL-5 melanoma) [µM] | TGI (SNB-19 CNS) [µM] | TGI (MALME-3M melanoma) [µM] | TGI (SW-620 colon) [µM] | TGI (SF-268 CNS) [µM] | TGI (OVCAR-5 ovarian) | TGI (MCF7 breast) [µM] | TGI (HS 578T breast) [µM] | GI50 (HOP-92 NSCLC) [µM] | GI50 (MCF7 breast) [µM] | GI50 (SNB-19 CNS) [µM] | GI50 (SW-620 colon) [µM] | GI50 (HS 578T breast) [µM] | GI50 (SF-268 CNS) [µM] | GI50 (OVCAR-5 ovarian) [µM] | GI50 (HCC-2998 colon) [µM] | GI50 (SK-MEL-5 melanoma) [µM] | GI50 (MALME-3M melanoma) [µM]
1 | Nc1ccccc1S(=O)(=O)c1ccccc1 | > 100 | > 100 | > 100 | > 100 | > 100 | > 100 | > 100 | > 100 µM |  |  |  |  |  |  |  |  |  |  |  | 
2 | COc1cc2c(ccc3c4cc(OC)c(OC)cc4c[n+](C)c23)cc1O | 75 | > 75 | 52.7 | 32.4 | 66.4 | > 47.3 | 6.09 | > 34.5 µM | > 75 |  |  |  |  |  |  |  |  |  |  | 
3 | COc1ccc(C(=O)c2sc(Nc3ccc(Cl)cc3)nc2N)cc1 | 44.7 | > 63.5 | > 100 | > 69.9 | > 59.4 | > 100 | 43.3 | > 100 µM | > 100 | 47.4 |  |  |  |  |  |  |  |  |  | 
4 | CN(C)CC(CC1=C(CC(CN(C)C)N(C)C)CCC1)N(C)C (configuration not stated) | > 100 | > 100 | > 100 | > 100 | > 100 | > 100 | > 100 | > 100 µM | > 100 |  |  |  |  |  |  |  |  |  |  | 
5 | Nc1nc(SCCc2ccccc2)nc2nc3c(c(-c4ccccc4)c12)CCCC3 |  |  |  | > 100 | > 100 | > 100 | > 100 |  | > 100 | 64.7 |  |  |  |  |  |  |  |  |  | 
6 | NC(=O)c1c(NC(=O)c2ccccn2)sc2c1CCC(=O)C2 |  | > 100 |  | > 100 |  | > 100 | > 100 | > 100 µM | > 100 | > 100 | 2.75 | 2.37 | 3.45 | 0.882 | 4.22 | 3.49 | 3.05 |  |  | 
7 | O=C(O)C1C2CCC(O2)C1C(=O)Nc1cccc2cccnc12 (configuration not stated) | > 100 |  |  | > 100 | > 100 | > 100 |  | > 100 µM | > 100 | > 100 |  |  |  |  |  |  |  |  |  | 
8 | CCN(CC(=O)O)C(=O)c1cccnc1 | > 100 | > 100 |  | > 100 | > 100 | > 100 | > 100 | > 100 µM |  | > 100 |  |  |  |  |  |  |  |  |  | 
9 | CCOC(=O)C1=NN(c2ccc(C)cc2)C2=CC(C)=NN(C)C(=S)N21 | > 100 |  | > 100 | > 100 |  | > 100 | > 100 | > 100 µM |  | > 100 |  |  |  |  |  |  |  |  |  | 
10 | CCOC(=O)C(NC(=O)c1ccco1)(Nc1nc2ccc(OCC)cc2s1)C(F)(F)F (configuration not stated) | > 100 | 47.5 | 47.8 | > 100 | > 100 | > 100 | > 100 | > 100 µM | 78.8 | > 100 |  |  |  |  |  |  |  |  |  | 
11 | Nc1cccc(/C=C/C(=O)N2CCN(CCOC(c3ccccc3)c3ccccc3)CC2)c1 |  | 26.2 | 29.4 | 32.4 | 31.2 | 35 | 35 | 34.6 µM | 31.5 | 45.6 |  |  |  |  |  |  |  |  |  | 
12 | COc1cccc([C@H]2C/C(=N\NC(=O)C(=O)N[C@@H](C)c3ccccc3)c3ccccc3N2)c1 | 0.0495 | > 100 | 0.868 | > 100 |  | > 100 | > 100 | > 100 µM | > 100 | 0.088 | 0.422 | 0.0306 | 0.0259 |  |  | 0.0912 |  |  |  | 
13 | COc1cc2c(cc1O)CC[C@@H]1[C@@H]2CC[C@]2(C)[C@@H](OCCN(C)C)CC[C@@H]12 | 1.5 |  | 0.164 | 5.14 | 0.753 | 0.763 | 5.29 |  | 0.884 | 4 |  | 0.17 | 0.777 | 0.163 | 0.463 | 0.353 |  | 0.644 | 0.0828 | 0.155
14 | COc1cccc2c1Cc1cc(-c3ccccc3)[n+](C)n1-2 | > 100 | 66.4 | 21.7 | > 100 | 25.6 | > 100 | > 100 | > 100 µM | 5.53 | > 100 |  |  |  |  |  |  |  |  |  | 
15 | O=c1cccccc1[O-].O=c1cccccc1[O-].[O]=[U+2]=[O] |  | 70.6 | > 100 | 82.2 |  | > 100 |  |  |  |  |  |  |  |  |  |  |  |  |  | 
16 | O=C(OCN1C(=O)C2C3C=CC(C2C1=O)C1C2C(=O)N(COC(=O)C4CCCN4)C(=O)C2C31)C1CCCN1 (configuration not stated) | > 100 | > 100 | > 100 | > 100 | > 100 | > 72.2 | > 78.5 | > 100 µM |  |  |  |  |  |  |  |  |  |  |  | 
17 | CCCCCCCCC/C=C/C=C/C(=O)NCC(=O)NC1C(O)C(O)C(Nc2ncnc3nc[nH]c23)OC1C(O)CO (configuration not stated) |  |  | 0.12 |  | 0.381 | 0.112 | 0.671 | 0.0182 µM and 0.0671 µM |  |  |  |  |  | 0.00284 | 0.201 | 0.00558 | 0.00137 |  |  | 0.00446
18 | NCCSC(c1ccccc1)c1ccccc1 |  | 37.2 | 31.1 | > 100 | 37.1 | 37.9 | > 100 | 34 µM | 38 | 76.5 |  |  |  |  |  |  |  |  |  | 
19 | CCC(C)C1=C(OC(C)=O)[N+]2([O-])Oc3ccc(-c4c(OC(C)=O)c(OC(C)=O)c(-c5ccc(OC(C)=O)cc5)c(OC(C)=O)c4OC(C)=O)cc3OC2(C(C)CC)C(=O)N1OC(C)=O (configuration not stated) |  |  | 23 | > 50 | > 50 | > 50 | 37.6 | > 50 µM | > 50 |  |  |  |  |  |  |  |  |  |  | 
20 | O=C(/C=C/c1ccc(O)c(-c2cc(C(=O)/C=C/c3ccc(O)cc3)c(O)cc2O)c1)c1ccc(O)cc1O |  | > 50 | > 50 | > 50 | > 50 | > 50 | > 50 | > 50 µM | > 50 | > 50 |  |  |  |  |  |  |  |  |  | 
21 | Fc1ccc(C(OCCN2CCC3CCC(C2)N3C/C=C/c2ccco2)c2ccc(F)cc2)cc1 (configuration not stated) | 18.4 | 19.1 | 14.4 | 32.8 | 21.7 | 21.6 | 25.9 |  | 22.7 | 34.3 |  |  |  |  |  |  |  |  |  | 
22 | Cc1ccccc1C(=O)N/N=C/c1ccc(Sc2nccn2C)c([N+](=O)[O-])c1 | > 100 | 88.2 | > 100 | > 100 | > 100 | > 100 | > 100 | > 100 µM | > 100 | > 100 |  |  |  |  |  |  |  |  |  | 
